Activity calls are given as the source filed them. The rule behind the calls is not given here.
Assays:
Peritoneal macrophage = experiment: Cytotoxicity against BALB/c mouse peritoneal macrophage assessed as cell proliferation at 20 ug for 48 hrs by MTT assay; type: toxicity, cell-based; details: dose 20 µg
[1] = biological target: Nucleotide-binding oligomerization domain-containing protein 2 (Homo sapiens) (UniProt Q9HC29); experiment: Binding affinity to NOD2 in HEK-Blue hNOD2 cells by measuring secreted alkaline phosphatase into culture supernatant at 20 ug measured after 24 hrs by HEK-Blue detection method; type: cell-based; details: filed as agonist, dose 20.0 µg
[2] = Induction of mouse spleen dendritic cells activation at 20 ug for 24 hrs relative to control; type: functional, Dendritic cell; details: dose 20 µg
[3] = Induction of BALB/c mouse peritoneal macrophage activation by measuring TNF-alpha level at 20 ug for 48 hrs by ELISA analysis; type: functional; details: dose 20 µg
Serum [4] = experiment: Induction of antibody titer production in immunized BALB/c mouse serum assessed as fold increase in IgG1 antibody titer at 20 ug for 28 days; type: functional; details: dose 20 µg; time 28 day
Serum [5] = experiment: Induction of antibody titer production in immunized BALB/c mouse serum assessed as fold increase in IgG1 antibody titer at 30 ug for 28 days; type: functional; details: dose 30 µg; time 28 day
Serum [6] = experiment: Induction of antibody titer production in immunized BALB/c mouse serum assessed as increase in IgG2a antibody titer at 10 to 30 ug for 28 days; type: functional, cell-free; details: dose 10-30 µg, time 28.0 day
Serum [7] = experiment: Induction of antibody titer production in immunized BALB/c mouse serum assessed as increase in IgG1 antibody titer at 10 to 30 ug for 28 days; type: functional, cell-free; details: dose 10-30 µg, time 28.0 day
CD4+ve Th [8] = experiment: Stimulation of CD4+ T helper cells in mouse spleen for 15 mins by auto- fluorescence based analysis; type: functional, cell-based
CD8-positive T cell [9] = experiment: Stimulation of […] in mouse spleen for 15 mins by auto- fluorescence based analysis; type: functional, tissue-based; details: dose 10-30 µg
Splenocyte [10] = experiment: Cytotoxicity against mouse splenocyte incubated at 10 to 30 ug for 3 hrs in by MTT assay; type: toxicity, cell-based; details: dose 10-30 µg
Serum [11] = experiment: Induction of antibody titer production in immunized BALB/c mouse serum assessed as increase in IgG2a antibody titer at 20 ug for 28 days; type: functional, cell-free; details: dose 20.0 µg, time 28.0 day
Serum [12] = experiment: Induction of antibody titer production in immunized BALB/c mouse serum assessed as increase in IgG1 antibody titer at 20 ug for 28 days; type: functional, cell-free; details: dose 20.0 µg, time 28.0 day
[13] = Cytotoxicity against BALB/c mouse peritoneal macrophage assessed as cell proliferation at 20 ug for 48 hrs by MTT assay relative to control; type: toxicity, cell-based; details: peritoneal macrophages, at 20 µg, read-out: Activity
CD4+ve Th [14] = experiment: Stimulation of CD4+ T helper cells in mouse spleen at 20 ug for 15 mins by auto- fluorescence based analysis; type: functional, cell-based; details: dose 20.0 µg
CD8-positive T cell [15] = experiment: Stimulation of […] in mouse spleen at 20 ug for 15 mins by auto- fluorescence based analysis; type: functional, tissue-based; details: dose 20.0 µg
Splenocyte [16] = experiment: Upregulation of IL-1beta in Dengue virus recombinant antigen restimulated mouse splenocyte incubated at 30 ug for 48 hrs by ELISA anlaysis; type: functional, cell-based; details: dose 10-30 µg
Splenocyte [17] = experiment: Upregulation of IL-1beta in Dengue virus recombinant antigen restimulated mouse splenocyte incubated at 20 ug for 48 hrs by ELISA anlaysis; type: functional, cell-based; details: dose 20.0 µg

Sequence of Nucleotide-binding oligomerization domain-containing protein 2 (Homo sapiens) (Q9HC29 whole entry, the tested form may be a part): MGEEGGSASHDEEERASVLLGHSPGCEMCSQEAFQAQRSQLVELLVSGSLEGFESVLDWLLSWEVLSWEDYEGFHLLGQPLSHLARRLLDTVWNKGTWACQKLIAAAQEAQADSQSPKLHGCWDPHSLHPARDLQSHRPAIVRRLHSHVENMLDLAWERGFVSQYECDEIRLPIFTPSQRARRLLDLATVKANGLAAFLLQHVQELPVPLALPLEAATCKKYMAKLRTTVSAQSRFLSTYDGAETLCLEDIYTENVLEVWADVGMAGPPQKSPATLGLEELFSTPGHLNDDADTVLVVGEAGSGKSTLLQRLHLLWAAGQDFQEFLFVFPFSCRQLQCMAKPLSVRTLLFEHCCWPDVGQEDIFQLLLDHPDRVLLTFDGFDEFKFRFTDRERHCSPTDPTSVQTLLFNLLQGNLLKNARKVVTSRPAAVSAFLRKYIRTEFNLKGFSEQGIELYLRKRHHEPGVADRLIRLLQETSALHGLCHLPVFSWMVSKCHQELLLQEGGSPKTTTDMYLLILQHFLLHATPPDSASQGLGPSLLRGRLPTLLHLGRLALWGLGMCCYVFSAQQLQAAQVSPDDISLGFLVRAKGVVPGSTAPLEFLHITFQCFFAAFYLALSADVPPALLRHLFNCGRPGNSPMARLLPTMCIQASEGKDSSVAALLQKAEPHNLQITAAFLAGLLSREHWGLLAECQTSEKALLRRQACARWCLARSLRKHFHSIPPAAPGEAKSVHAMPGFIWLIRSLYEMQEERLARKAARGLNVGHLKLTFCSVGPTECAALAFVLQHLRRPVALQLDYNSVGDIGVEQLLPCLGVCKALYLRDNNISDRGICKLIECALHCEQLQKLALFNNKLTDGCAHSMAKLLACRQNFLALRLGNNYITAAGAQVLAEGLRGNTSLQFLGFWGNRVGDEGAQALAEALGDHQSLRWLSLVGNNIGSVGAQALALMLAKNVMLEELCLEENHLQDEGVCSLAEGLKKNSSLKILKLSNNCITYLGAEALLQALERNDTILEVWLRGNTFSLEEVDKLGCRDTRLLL

Activity [1]	Compound	Activity (Peritoneal macrophage)	Activity [2]	Activity [3]	fold change (FC) (Serum [4])	fold change (FC) (Serum [5])	Activity (Serum [6])	Activity (Serum [7])	Activity (CD4+ve Th [8])	Activity (CD8-positive T cell [9])	Activity (Splenocyte [10])	Activity (Serum [11])	Activity (Serum [12])	viability at 48 h, 20 ug [13]	Activity (CD4+ve Th [14])	Activity (CD8-positive T cell [15])	Activity (Splenocyte [16])	Activity (Splenocyte [17])
Active	CC(=O)N[C@@H]1[C@@H](O[C@H](C)C(=O)N[C@@H](C)C(=O)N[C@H](CCC(=O)O)c2nn[nH]n2)[C@H](O)[C@@H](CO)O[C@@H]1O	Non-Toxic	13%	250 pg/mL	–	–	–	–	–	–	–	–	–	–	–	–	–	–
Active	CC(=O)N[C@@H]1[C@@H](O[C@H](C)C(=O)N[C@@H](C)C(=O)N[C@H](CCC(=O)O)c2nnn(C3CCCCCC3)n2)[C@H](O)[C@@H](CO)O[C@@H]1O	Non-Toxic	13%	250 pg/mL	–	–	–	–	–	–	–	–	–	–	–	–	–	–
Active	CCCCn1nnc([C@@H](CCC(=O)O)NC(=O)[C@H](C)NC(=O)[C@@H](C)O[C@H]2[C@H](O)[C@@H](CO)O[C@H](O)[C@@H]2NC(C)=O)n1	Non-Toxic	13%	<=100 pg/ml	8	11	Active	Active	Dose-Dependent Effect	Dose-Dependent Effect	Non-Toxic	–	–	–	–	–	–	–
Active	CC(=O)N[C@H]1[C@@H](OCc2ccccc2)O[C@@H]2CO[C@@H](c3ccccc3)O[C@H]2[C@@H]1O[C@H](C)C(=O)N[C@@H](C)C(=O)N[C@H](CCC(=O)OCc1ccccc1)C(N)=O	Non-Toxic	13%	–	7	–	–	–	–	–	Toxic	Active	Active	–	–	–	–	–
Active	CCCCCCCCCCCCn1nnc([C@@H](CCC(=O)O)NC(=O)[C@H](C)NC(=O)[C@@H](C)O[C@H]2[C@H](O)[C@@H](CO)O[C@H](O)[C@@H]2NC(C)=O)n1	Non-Toxic	13%	250 pg/mL	–	–	–	–	–	–	–	–	–	< 140%	–	–	–	–
Active	CCCCCCCCn1nnc([C@@H](CCC(=O)O)NC(=O)[C@H](C)NC(=O)[C@@H](C)O[C@H]2[C@H](O)[C@@H](CO)O[C@H](O)[C@@H]2NC(C)=O)n1	Non-Toxic	13%	<=100 pg/ml	11	–	Active	Active	–	–	Non-Toxic	–	–	–	inactive	inactive	Active	Active
Active	CCCCCCCCCCCCCCCCCCn1nnc([C@@H](CCC(=O)O)NC(=O)[C@H](C)NC(=O)[C@@H](C)O[C@H]2[C@H](O)[C@@H](CO)O[C@H](O)[C@@H]2NC(C)=O)n1	Non-Toxic	13%	<=100 pg/ml	–	–	–	–	–	–	–	–	–	–	–	–	–	–
